This assay is described as follows: Displacement of [3H]mesulergine from pig cortex 5-hydroxytryptamine 1C receptor.

Molecules are shown by their SMILES. pIC50: −log10 of the molar value.

What is called pIC50 is −log10 of the IC50, conventionally taken in molar units. In turn, `CC(=O)Nc1ccc(Cc2noc(-c3ccc4[nH]cc(CCN)c4c3)n2)cc1` had a pIC50 of 5.80.

`NCCc1c[nH]c2ccc(Cc3nc(N)no3)cc12` had a pIC50 of 5.50.

In the case of `CN(C)CCc1c[nH]c2ccc(Cc3nc(N)ns3)cc12`, the pIC50 is 6.60.

`CN(C)CCc1c[nH]c2ccc(CCc3nc(N)no3)cc12` gave a pIC50 of 6.00.

As to `NCCc1c[nH]c2ccc(CCc3nc(Cc4ccccc4)no3)cc12`, the pIC50 was 6.10.

The compound `Cc1noc(-c2ccc3[nH]cc(CCN)c3c2)n1` had a pIC50 of 5.90.

`Cc1noc(Cc2ccc3[nH]cc(CCN)c3c2)n1`: the pIC50 was 5.90.

Consider `NCCc1c[nH]c2ccc(-c3nc(C4CC4)no3)cc12`, for which the negative logarithm of the IC50 (pIC50) was 6.00.

With `Cc1noc(Cc2ccc3[nH]cc(CCN(C)C)c3c2)n1`, the pIC50 is 6.00.

`CS(=O)(=O)Nc1ccc(Cc2noc(-c3ccc4[nH]cc(CCN)c4c3)n2)cc1` [L-694247] had a pIC50 of 6.50. This pIC50 is 0.50 log units higher than that of the compound before.

`COc1ccc(Cc2noc(-c3ccc4[nH]cc(CCN)c4c3)n2)cc1`: the pIC50 was 6.10.

In turn, `NCCc1c[nH]c2ccc(-c3nc(Cc4ccccc4)no3)cc12` gave a pIC50 of 5.40. This pIC50 lies 0.70 log units lower than the previous one.

Values taken from BindingDB's records for doi:10.1021/jm00063a003 (Merck Sharp and Dohme Research Laboratories, 1993).
